# Measurements: US11058716B2 (priority 2015, dated 2021)
# System: PAO1 protein
# Format: cell-based, Pseudomonas aeruginosa
structure (smiles),measurement,value
"N[C@@H](CCC(=O)N[C@@H](CSN=O)C(=O)NCC(=O)O)C(=O)O [GSNO, nitrosoglutathione]",overall SNO level of the PAO1 protein,increased significantly
